From patent publication US20210038579A1, “Treatment Of Patients With Classic Fabry Disease” (Amicus Therapeutics, Inc., priority 2018, published 2021)
Changes are numbered by the printed parent chain.

Assays:
Assay in all cases: HEK assay: α-Gal A activity in HEK-293 cell lysate with migalastat
Format in all cases: cell-based
[1] = target: T1, α-Gal A mutant form p.Gly373Ser (c.1117 G > A) (Homo sapiens, UniProt P06280, G373S)
T1 construct: expressed in transfected cells; host or cells: HEK-293
T1 sequence (P06280 32-429 G373S): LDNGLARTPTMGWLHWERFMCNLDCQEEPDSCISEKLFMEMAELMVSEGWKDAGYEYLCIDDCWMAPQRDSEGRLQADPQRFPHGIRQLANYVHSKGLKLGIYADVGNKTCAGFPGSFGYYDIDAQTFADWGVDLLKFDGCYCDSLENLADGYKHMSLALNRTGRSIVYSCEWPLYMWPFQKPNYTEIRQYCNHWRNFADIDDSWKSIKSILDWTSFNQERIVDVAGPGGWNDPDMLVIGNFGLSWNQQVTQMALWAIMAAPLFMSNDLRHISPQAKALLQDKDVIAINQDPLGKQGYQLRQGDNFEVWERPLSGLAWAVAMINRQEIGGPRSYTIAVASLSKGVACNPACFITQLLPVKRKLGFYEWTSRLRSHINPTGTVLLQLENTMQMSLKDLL
Method: (§1) Such mutations are also referred to herein as “HEK assay amenable” mutations.
(§2) In this assay, cDNA constructs are created. The corresponding α-Gal A mutant forms are transiently expressed in HEK-293 cells. Cells are then incubated±migalastat (17 nM to 1 mM) for 4 to 5 days. After, α-Gal A levels are measured in cell lysates using a synthetic fluorogenic substrate (4-MU-α-Gal) or by western blot. This has been done for known disease-causing missense or small in-frame insertion/deletion mutations.

[2] = target: T2, α-Gal A mutant form p.Arg112His (c.335 G > A) (Homo sapiens, UniProt P06280, R112H)
T2 construct: expressed in transfected cells; host or cells: HEK-293
T2 sequence (P06280 32-429 R112H): T1 sequence (P06280 32-429 G373S) with R81H, S342G
Method: as §1, §2

[3] = target: T3, α-Gal A mutant form p.Pro259Arg (c.776 C > G) (Homo sapiens, UniProt P06280, P259R)
T3 construct: expressed in transfected cells; host or cells: HEK-293
T3 sequence (P06280 32-429 P259R): T1 sequence (P06280 32-429 G373S) with P228R, S342G
Method: as §1, §2

[4] = target: T4, α-Gal A mutant form p.Leu243Phe (c.729 G > C) (Homo sapiens, UniProt P06280, L243F)
T4 construct: expressed in transfected cells; host or cells: HEK-293
T4 sequence (P06280 32-429 L243F): T1 sequence (P06280 32-429 G373S) with L212F, S342G
Method: as §1, §2

[5] = target: T5, α-Gal A mutant form p.Tyr216Cys (c.647 A > G) (Homo sapiens, UniProt P06280, Y216C)
T5 construct: expressed in transfected cells; host or cells: HEK-293
T5 sequence (P06280 32-429 Y216C): T1 sequence (P06280 32-429 G373S) with Y185C, S342G
Method: as §1, §2

[6] = +10 μM migalastat, HEK-293 cell lysate, mean ± SEM, n = 20
[7] = HEK293, 10 μM migalastat minus baseline, read-out: Absolute increase at 10 μM (% WT)

## OC[C@H]1NC[C@H](O)[C@@H](O)[C@H]1O [migalastat]
[1]; 10 μM migalastat
  α-Gal A activity at 10 μM (fold over baseline): 3.32 fold over baseline
[1]; [6]
  +Migalastat α-Gal A activity: 5128 ± 288 nmol/mg/h
  +Migalastat α-Gal A activity % WT: 15.7 ± 0.8 % WT
[1]; [7]
  activation at 10 µM: 10.9%
[2]; 10 μM migalastat
  α-Gal A activity at 10 μM (fold over baseline): 6.61 fold over baseline
[2]; [6]
  +Migalastat α-Gal A activity: 5583 ± 215 nmol/mg/h
  +Migalastat α-Gal A activity % WT: 17.4 ± 0.8 % WT
[2]; [7]
  activation at 10 µM: 14.8%
[3]; 10 μM migalastat
  α-Gal A activity at 10 μM (fold over baseline): 2.64 fold over baseline
[3]; [6]
  +Migalastat α-Gal A activity: 17645 ± 515 nmol/mg/h
  +Migalastat α-Gal A activity % WT: 60.3 ± 3.8 % WT
[3]; [7]
  activation at 10 µM: 37%
[4]; 10 μM migalastat
  α-Gal A activity at 10 μM (fold over baseline): 5.33 fold over baseline
[4]; [6]
  +Migalastat α-Gal A activity: 14370 ± 618 nmol/mg/h
  +Migalastat α-Gal A activity % WT: 42.3 ± 1.4 % WT
[4]; [7]
  activation at 10 µM: 34.4%
[5]; 10 μM migalastat
  α-Gal A activity at 10 μM (fold over baseline): 10.40 fold over baseline
[5]; [6]
  +Migalastat α-Gal A activity: 7003 ± 305 nmol/mg/h
  +Migalastat α-Gal A activity % WT: 20.7 ± 0.8 % WT
[5]; [7]
  activation at 10 µM: 18.7%
